By melting point is commonly meant the temperature of the solid-liquid transition.

This is an account of results in patent US10087139B2, “3-Phenylisoserine derivative production method” (Toray Fine CHhemicals Co., Ltd., priority 2015, dated 2018).

Data set [1] can be described thus: Solubility of N-protected-3-phenylisoserine in the extraction solvents. In kind it is physicochemical. On the procedure:
The same operation as in Example 1 was carried out except that toluene was used instead of tetrahydrofuran as the extraction solvent in the extraction step of Example 1. As a result, (2R,3S)—N-benzoyl-3-phenylisoserine as an intermediate could be hardly extracted into the organic layer. To evaluate the performance of the extraction solvent, solubility of (2R,3S)—N-benzoyl-3-phenylisoserine was investigated for comparison.
The same operation as in Example 1 was carried out except that cyclopentyl methyl ether was used instead of tetrahydrofuran as the extraction solvent in the extraction step of Example 1. As a result, (2R,3S)—N-benzoyl-3-phenylisoserine as an intermediate could be hardly extracted into the organic layer. To evaluate the performance of the extraction solvent, solubility of (2R,3S)—N-benzoyl-3-phenylisoserine was investigated for comparison.
The same operation as in Example 1 was carried out except that methyl-tert-butyl ether was used instead of tetrahydrofuran as the extraction solvent in the extraction step of Example 1. As a result, (2R,3S)—N-benzoyl-3-phenylisoserine as an intermediate could be hardly extracted into the organic layer. To evaluate the performance of the extraction solvent, solubility of (2R,3S)—N-benzoyl-3-phenylisoserine was investigated for comparison.
The same operation as in Example 1 was carried out except that acetonitrile was used instead of tetrahydrofuran as the extraction solvent in the extraction step of Example 1. As a result, (2R,3S)—N-benzoyl-3-phenylisoserine as an intermediate could be hardly extracted into the organic layer. To evaluate the performance of the extraction solvent, solubility of (2R,3S)—N-benzoyl-3-phenylisoserine was investigated for comparison.

Assay in data set [2]: as above
In kind it is physicochemical. Particulars: solvent 1,2-dimethoxyethane.

Where [3] appears, read: solvent cyclopentyl methyl ether.
Where [4] appears, read: solvent methyl-tert-butyl ether.

Structures are written as SMILES.

Regarding `O=C(N[C@@H](c1ccccc1)[C@@H](O)C(=O)O)c1ccccc1` [(2R,3S)—N-benzoyl-3-phenylisoserine], the “Solubility (20° C.)” value in data set [1] (solvent acetonitrile) is 2.2 wt %; in data set [1] (setting [3]), 0.4 wt %; in data set [1] (setting [4]), 0.2 wt %; in data set [1] (solvent tetrahydrofuran) it was 9.2 wt %; in data set [1] (solvent toluene) it was under 0.1 wt %; in data set [2] (20° C.) it was 12.7 wt %. Also, the “Solubility (40° C.)” value was 2.9 wt % in data set [1] (solvent acetonitrile); 0.4 wt % in data set [1] (setting [3]); 0.4 wt % in data set [1] (setting [4]); 11.6 wt % in data set [1] (solvent tetrahydrofuran); under 0.1 wt % in data set [1] (solvent toluene); 13.6 wt % in data set [2] (40° C.).
For `COC(=O)[C@H](O)[C@@H](NC(=O)c1ccccc1)c1ccccc1` [Example 1, (2R,3S)—N-benzoyl-3-phenylisoserine methyl ester], the melting point was in the range of 183 to 185 °C.
The compound `COC(=O)[C@H](O)[C@@H](NC(=O)OC(C)(C)C)c1ccccc1` [Example 2, (2R,3S)—N-tert-butoxycarbonyl-3-phenylisoserine methyl ester] registered a melting point of 131 to 133 °C.
With `CC(C)(C)OC(=O)NC(c1ccccc1)C(O)C(=O)O` (stereo not shown) [N-tert-butoxycarbonyl-3-phenylisoserine], in data set [1] (solvent tetrahydrofuran), the “Solubility (20° C.)” value came out at 10.1 wt % and the “Solubility (40° C.)” value is reported as 12.2 wt %.
